In patent publication US9609884B2, “Anti-fatigue agent” (Suntory Holdings Limited, priority 2007, dated 2017):

Legend:
Type in all cases: in vivo
[1] = system: Sprague Dawley male rats under exercise stress; assay: Forced exercise test, sesamin given after treadmill exercise stress (recovery from fatigue); conditions: 180 mg/kg oral in olive oil after 3-hr treadmill exercise stress; versus control group under exercise stress
Method: The second thing to do is measure the motor activity in a forced exercise test. Rats administered with the test substance are forced to have exercise on a treadmill and, thereafter, the motor activity of the animal in the dark period is measured. Since this is an animal model for fatigue from exercise (physical fatigue), an increase in the motor activity as achieved by administering it with the test substance means the verification of resistance to fatigue.
The test sample used in Example 2 was the same sesamin as in Example 1.
Sprague Dawley male rats (6-week old) were acclimatized in a test environment for a week and the animals that had shown normal growth were subjected to the test. One day before the start of the test, the rats were divided into five groups each consisting of eight animals. On the day of the test, all animals were starved from the morning and one group of rats was assigned as a resting group that was not to be subjected to exercise stress. […] Thereafter, the animals were transferred to an automatograph (Supermex manufactured by MUROMACHI KIKAI CO., LTD.) and their motor activity in the dark period was measured.

[2] = system: Balb/c male mice kept under water immersion stress; assay: Water immersion sleep disturbed test (forced swimming under weight load); conditions: once a day for two days during water immersion, weight 8% of body weight
Method: The first thing to do is measure the swimming time in a water immersion sleep disturbed test. Mice that have been kept in an environment such as water immersion where they are unable to have a good sleep or take a rest position so they cannot have a physical or mental rest are forced to swim under a weight load and the time it takes for them to have their nose sunk in the water for a period of ten seconds or longer is measured to confirm the degree of their fatigue. Since this is an animal model for physical or mental fatigue, an extension of the swimming time as achieved by administering it with the test substance means the verification of resistance to fatigue, as exemplified by relief of physical and/or mental fatigue, maintenance of physical vigor in the tired model (increase in body strength), or improvement of stamina. A sesamin/episesamin mixture (sesamin:episesamin=1:1 in weight ratio) was used as a test sample. Effectiveness against fatigue was evaluated by the following partial modification of the method of Tanaka et al. (Neuroscience, Let. 352, 159-162, 2003). The test animals Balb/c male mice (8-week old) were divided into five groups, each consisting of 12 animals and having the same average body weight. Four of those five groups were water immersion groups, which were kept in breeding cages, not on paper chips but in tap water (23° C.) supplied to a depth of 7 mm, thereby disturbing sleep of the mice. […] After two days, each mouse was fitted with a weight at the tail which corresponded to 8% of its body weight, and was allowed to swim in a water tank of 18 cm^φ that was filled with water to a depth of 30 cm; the time it took for each mouse to have its nose sunk in water for a period of at least 10 seconds was measured. The mice in the groups kept under water immersion stress could swim for a shorter period than the mice in the normally kept group and the degree by which the shortening of the swimming time could be controlled in the sesamin administered groups was measured to evaluate the effectiveness of sesamin against fatigue. […]

[3] = system: Balb/c male mice kept under water immersion stress; assay: Measuring fatigue-causing substances (ketone bodies) in the blood of mice under water immersion stress; conditions: 50 mg/kg oral once a day for three days during water immersion; versus control group under water immersion stress (olive oil)
Text: The third thing to do is measure the amount of fatigue-causing substances in the blood. This involves administering the test substance to check to see if it has an action for controlling an increase in the blood concentration of fatigue-causing substances under a physical or mental stress. Although no substances have been identified to be causative of fatigue, one class of candidates may be ketone bodies (collectively referring to acetoacetate, 3-hydroxybutyrate, and acetone). Ketone bodies are known to be metabolites that are produced when free fatty acids […] from the fat tissue on account of lowered glucose availability undergo β-oxidation. If the production of ketone bodies is enhanced beyond their utilization in the extrahepatic tissues, ketone bodies accumulate in the blood, leading to ketosis. Actoacetate and 3-hydroxybutyrate are moderately strong acids, so if ketone bodies accumulate in amounts exceeding the buffering action of the living body, the blood becomes acidic, causing a condition known as acidosis which, in turn, produces a feeling of weariness (Takanori Yamamoto, Igaku no ayumi (Progress in Medicine), Vol. 204, No. 5:325-329, 2003). […]
After three days, blood was drawn from each mouse and the ketone bodies in the serum were measured by the enzyme method with a biochemical automatic analyzer (Model 7070 of Hitachi, Ltd.)

[4] = system: Sprague Dawley male rats under exercise stress; assay: Forced exercise test, sesamin-mixed feed for a week before treadmill exercise stress (prevention of fatigue); conditions: versus exercise fatigue control group
Method: The second thing to do is measure the motor activity in a forced exercise test. Rats administered with the test substance are forced to have exercise on a treadmill and, thereafter, the motor activity of the animal in the dark period is measured. Since this is an animal model for fatigue from exercise (physical fatigue), an increase in the motor activity as achieved by administering it with the test substance means the verification of resistance to fatigue. The test sample used in Example 3 was the same sesamin as in Example 1. Sprague Dawley male rats (10-week old) were acclimatized in a test environment for a week and the animals that had shown normal growth were subjected to the test. The rats were divided into three groups each consisting of eight animals. Then, AI[…] was mixed with sesamin to give final concentrations of 0, 0.02, and 0.1% (w/w) to prepare feeds and the rats were let to ingest the respective feeds ad libitum for a week. Thereafter, all animals were given a 3-hr exercise stress by means of a treadmill-type forced walking apparatus (MK-680 manufactured by MUROMACHI KIKAI CO., LTD.) After the end of exercise stress application, the animals were transferred to an automatograph (Supermex manufactured by MUROMACHI KIKAI CO., LTD.) and their motor activity in the dark period was measured.

c1cc2c(cc1[C@H]1OC[C@H]3[C@@H]1CO[C@@H]3c1ccc3c(c1)OCO3)OCO2 [sesamin]
motor activity in the dark period [1]: an increase in the motor activity was confirmed | swimming time (control group kept under water immersion stress taken as 100%) ([2]; 12.5 mg/kg oral): 150% | swimming time (control group kept under water immersion stress taken as 100%) ([2]; 50 mg/kg oral): 300% | swimming time (control group kept under water immersion stress taken as 100%) ([2]; 200 mg/kg oral): 133% | concentration of ketone bodies in the serum [3]: significant control of the increase in the concentration of ketone bodies | motor (physical) activity in the dark period ([4]; mixed feed containing 0.02% (w/w) sesamin ad libitum for a week before 3-hr exercise stress): almost the same physical activity | motor (physical) activity in the dark period ([4]; mixed feed containing 0.1% (w/w) sesamin (about 80 mg/kg) ad libitum for a week before 3-hr exercise stress): enhanced physical activity
